According to patent US20060069132A1, “Azolecarboxamide herbicides” (priority 2004, published 2006):

Columns and labels:
barnyardgrass [1] = assay: Test B pre-/postemergence herbicide test; assay type: in vivo, Echinochloa crus-galli; details: for Barnyardgrass plant response rating: postemergence, visual rating, scale 0 (no effect) to 100 (complete control)
Method in brief: (§1)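 Formulation: non-phytotoxic solvent mix with surfactant. Timing: preemergence on seed and postemergence on 2–18 cm plants, applied concurrently. Readout after 13–15 d greenhouse: visual 0–100 control rating against controls.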

Surinam grass = assay: Test B pre-/postemergence herbicide test; assay type: in vivo, Urochloa decumbens; details: for Surinam Grass plant response rating: postemergence, visual rating, scale 0 (no effect) to 100 (complete control)
Method in brief: as §1

cocklebur = assay: Test B pre-/postemergence herbicide test; assay type: in vivo, Xanthium strumarium; details: for Cocklebur plant response rating: postemergence, visual rating, scale 0 (no effect) to 100 (complete control)
Method in brief: as §1

corn = assay: Test B pre-/postemergence herbicide test; assay type: in vivo, Zea mays; details: for Corn plant response rating: postemergence, visual rating, scale 0 (no effect) to 100 (complete control)
Method in brief: as §1

large crabgrass = assay: Test B pre-/postemergence herbicide test; assay type: in vivo, Digitaria sanguinalis; details: for Crabgrass, Large plant response rating: postemergence, visual rating, scale 0 (no effect) to 100 (complete control)
Method in brief: as §1

giant foxtail = assay: Test B pre-/postemergence herbicide test; assay type: in vivo, Setaria faberi; details: for Foxtail, Giant plant response rating: postemergence, visual rating, scale 0 (no effect) to 100 (complete control)
Method in brief: as §1

lambsquarters = assay: Test B pre-/postemergence herbicide test; assay type: in vivo, Chenopodium album; details: for Lambsquarters plant response rating: postemergence, visual rating, scale 0 (no effect) to 100 (complete control)
Method in brief: as §1

morningglory = assay: Test B pre-/postemergence herbicide test; assay type: in vivo, Ipomoea coccinea; details: for Morningglory plant response rating: postemergence, visual rating, scale 0 (no effect) to 100 (complete control)
Method in brief: as §1

pigweed = assay: Test B pre-/postemergence herbicide test; assay type: in vivo, Amaranthus retroflexus; details: for Pigweed plant response rating: postemergence, visual rating, scale 0 (no effect) to 100 (complete control)
Method in brief: as §1

rice [2] = assay: Test B pre-/postemergence herbicide test; assay type: in vivo, Oryza sativa; details: preemergence
Method in brief: as §1

velvetleaf = assay: Test B pre-/postemergence herbicide test; assay type: in vivo, Abutilon theophrasti; details: for Velvetleaf plant response rating: postemergence, visual rating, scale 0 (no effect) to 100 (complete control)
Method in brief: as §1

blackgrass = assay: Test B postemergence herbicide test; assay type: in vivo, Alopecurus myosuroides; details: postemergence, visual rating, scale 0 (no effect) to 100 (complete control)
Method in brief: (§2)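 Scale 0–100: zero equals no visible effect, 100 complete control, judged by eye relative to controls. Timing: 13 to 15 days in greenhouse post-treatment. Growth stage at spraying: two leaves (paddy) or one to four leaves, 2–18 cm (postemergence).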

wheat = assay: Test B postemergence herbicide test; assay type: in vivo, Triticum aestivum; parameters: key to Wheat plant response rating: 0 = no effect, 100 = complete control; details: postemergence, visual rating, scale 0 (no effect) to 100 (complete control)
Method in brief: (§3)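 Postemergence plants were sprayed with formulated test chemicals at 2 to 18 cm height (1- to 4-leaf stage); paddy species were grown to the 2-leaf stage. After 13 to 15 days in a greenhouse, injury was rated visually against untreated controls on a 0–100 scale (0 = no effect, 100 = complete control).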

wild oat = assay: Test B postemergence herbicide test; assay type: in vivo, Avena fatua; details: postemergence, visual rating, scale 0 (no effect) to 100 (complete control)
Method in brief: as §3

rice [3] = assay: Test B flooded paddy test; assay type: in vivo, Oryza sativa; details: 1000 g ai/ha, visual rating, scale 0 to 100 (0 no effect, 100 complete control), 13 to 15 days
Method in brief: as §2

[4] = system: small flower umbrella sedge; assay: Test B flooded paddy test; assay type: in vivo, Cyperus difformis; details: 1000 g ai/ha, visual rating, scale 0 to 100 (0 no effect, 100 complete control), 13 to 15 days
Method in brief: as §2

ducksalad [5] = assay: Test B flooded paddy test; assay type: in vivo, Heteranthera limosa; details: 1000 g ai/ha, visual rating, scale 0 to 100 (0 no effect, 100 complete control), 13 to 15 days
Method in brief: as §2

barnyardgrass [6] = assay: Test B flooded paddy test; assay type: in vivo, Echinochloa crus-galli; details: 1000 g ai/ha, visual rating, scale 0 to 100 (0 no effect, 100 complete control), 13 to 15 days
Method in brief: as §2

rice [7] = assay: Test C flooded paddy test; assay type: in vivo, Oryza sativa; details: for Plant response rating, Rice: 500 g ai/ha, visual rating after 12 to 14 days
Method in brief: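 Injury scored visually against controls on a 0 (no effect) to 100 (complete control) scale, 12 to 14 days after treatment in greenhouse. Flooded paddy plants treated at 2-leaf stage; postemergence plants at 1- to 4-leaf stage, 2 to 18 cm tall.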

[8] = system: smallflower umbrella sedge; assay: Test C flooded paddy test; assay type: in vivo, Cyperus difformis; details: for Plant response rating, Sedge, Umbrella: 500 g ai/ha, visual rating after 12 to 14 days
ducksalad [9] = assay: Test C flooded paddy test; assay type: in vivo, Heteranthera limosa; details: for Plant response rating, Ducksalad: 500 g ai/ha, visual rating after 12 to 14 days
barnyardgrass [10] = assay: Test C flooded paddy test; assay type: in vivo, Echinochloa crus-galli; details: for Plant response rating, Barnyardgrass: 500 g ai/ha, visual rating after 12 to 14 days
Method in brief: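 Postemergence sprays applied to plants 2 to 18 cm tall (1- to 4-leaf stage); paddy species grown to 2-leaf stage under flooding. After 12 to 14 days in greenhouse, visual rating versus untreated controls on 0–100 scale (0 no effect, 100 complete control).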

[11] = 500 g ai/ha, visual rating 0-100, 0 no effect, 100 complete control, preemergence
[12] = preemergence, 125 g ai/ha, 0 to 100 scale, 0 is no effect, 100 is complete control
[13] = 500 g ai/ha, visual rating 0-100, 0 no effect, 100 complete control
[14] = 62 g ai/ha, scale 0 to 100 (0 no effect, 100 complete control)
[15] = 125 g ai/ha, scale 0 to 100 (0 no effect, 100 complete control)
[16] = 250 g ai/ha, scale of 0 to 100, 0 is no effect, 100 is complete control
[17] = scale 0 to 100 (0 no effect, 100 complete control)
[18] = 125 g ai/ha, scale of 0 to 100, 0 is no effect, 100 is complete control
[19] = 125 g ai/ha, 0 = no effect, 100 = complete control, preemergence

CCn1nc(C(C)(C)C)cc1C(=O)Nc1cc(C(=O)NCCOC)ccn1 [Compound 161]
50: Plant response rating, Barnyardgrass (barnyardgrass [1]; [12]) | Velvetleaf plant response rating (velvetleaf; 500 g ai/ha)
20: Surinam Grass plant response rating (Surinam grass; 125 g ai/ha) | Surinam Grass plant response rating (Surinam grass; 500 g ai/ha) | Cocklebur plant response rating (cocklebur; 125 g ai/ha) | Foxtail, Giant plant response rating (giant foxtail; 125 g ai/ha) | Plant response rating, Foxtail, Giant (giant foxtail; [12]) | Morningglory plant response rating (morningglory; 125 g ai/ha) | Morningglory plant response rating (morningglory; 500 g ai/ha) | Pigweed plant response rating (pigweed; 125 g ai/ha) | Velvetleaf plant response rating (velvetleaf; 125 g ai/ha) | Plant response rating, Velvetleaf (velvetleaf; [12])
70: Lambsquarters plant response rating (lambsquarters; 125 g ai/ha) | Lambsquarters plant response rating (lambsquarters; 500 g ai/ha) | Plant response rating, Velvetleaf (velvetleaf; [11])
90: Plant response rating, Ducksalad (ducksalad [9]; [17])
75: Plant response rating, Barnyardgrass (barnyardgrass [10]; [17])
30: Cocklebur plant response rating (cocklebur; 500 g ai/ha) | Foxtail, Giant plant response rating (giant foxtail; 500 g ai/ha) | Oat, Wild plant response rating (wild oat; 125 g ai/ha) | Ducksalad plant response rating (ducksalad [9]; [14]) | Barnyardgrass plant response rating (barnyardgrass [10]; [16])
100: Plant response rating, Barnyardgrass (barnyardgrass [1]; [11]) | Plant response rating, Crabgrass, Large (large crabgrass; [11]) | Plant response rating, Foxtail, Giant (giant foxtail; [11]) | Plant response rating, Lambsquarters (lambsquarters; [11]) | Plant response rating, Lambsquarters (lambsquarters; [12]) | Plant response rating, Pigweed (pigweed; [11]) | Plant response rating, Pigweed (pigweed; [12])
80: Plant response rating, Crabgrass, Large (large crabgrass; [12]) | Ducksalad plant response rating (ducksalad [5]) | Barnyardgrass plant response rating (barnyardgrass [6]) | Ducksalad plant response rating (ducksalad [9]; [16])
25: Sedge, Umbrella plant response rating [8, 16]
0: Plant response rating, Cocklebur (cocklebur; [11]) | Plant response rating, Cocklebur (cocklebur; [12]) | Corn plant response rating (corn; 125 g ai/ha) | Corn plant response rating (corn; 500 g ai/ha) | Plant response rating, Corn (corn; [12]) | Crabgrass, Large plant response rating (large crabgrass; 125 g ai/ha) | Plant response rating, Rice (rice [2]; 125 g ai/ha, 0 to 100 scale, 0 is no effect, 100 is complete control) | Rice plant response rating (rice [7]; [14]) | Sedge, Umbrella plant response rating [8, 14] | Sedge, Umbrella plant response rating [8, 15] | Barnyardgrass plant response rating (barnyardgrass [10]; [14]) | Barnyardgrass plant response rating (barnyardgrass [10]; [18])
65: Plant response rating, Rice (rice [7]; [17]) | Ducksalad plant response rating (ducksalad [9]; [15])
40: Plant response rating, Morningglory (morningglory; [11]) | Plant response rating, Rice (rice [2]; [13]) | Blackgrass plant response rating (blackgrass; 125 g ai/ha) | Blackgrass plant response rating (blackgrass; 500 g ai/ha) | Oat, Wild plant response rating (wild oat; 500 g ai/ha) | Rice plant response rating (rice [3]) | Plant response rating, Sedge, Umbrella [8, 17]
10: Barnyardgrass plant response rating (barnyardgrass [1]; 125 g ai/ha) | Barnyardgrass plant response rating (barnyardgrass [1]; 500 g ai/ha) | Plant response rating, Surinam Grass (Surinam grass; [12]) | Plant response rating, Corn (corn; [11]) | Crabgrass, Large plant response rating (large crabgrass; 500 g ai/ha) | Plant response rating, Morningglory (morningglory; [12]) | Wheat plant response rating (wheat; 500 g ai/ha) | Rice plant response rating (rice [7]; [15])
60: Plant response rating, Surinam Grass (Surinam grass; [11]) | Pigweed plant response rating (pigweed; 500 g ai/ha) | Sedge, Umbrella plant response rating [4] | Rice plant response rating (rice [7]; [16])

CCNC(=O)c1cccc(NC(=O)c2cn(C(C)(C)C)nc2CC)c1 [Compound 181]
20: Surinam Grass plant response rating (Surinam grass; 125 g ai/ha) | Surinam Grass plant response rating (Surinam grass; 500 g ai/ha) | Plant response rating, Cocklebur (cocklebur; [11]) | Cocklebur plant response rating (cocklebur; 125 g ai/ha) | Corn plant response rating (corn; 125 g ai/ha) | Corn plant response rating (corn; 500 g ai/ha) | Crabgrass, Large plant response rating (large crabgrass; 500 g ai/ha) | Foxtail, Giant plant response rating (0 to 100 scale) (giant foxtail; [19]) | Foxtail, Giant plant response rating (giant foxtail; 125 g ai/ha) | Foxtail, Giant plant response rating (giant foxtail; 500 g ai/ha) | Plant response rating, Morningglory (morningglory; [11]) | Morningglory plant response rating (morningglory; 125 g ai/ha) | Morningglory plant response rating (morningglory; 500 g ai/ha) | Velvetleaf plant response rating (velvetleaf; 500 g ai/ha) | Oat, Wild plant response rating (wild oat; 125 g ai/ha) | Sedge, Umbrella plant response rating [8, 15]
0: Barnyardgrass plant response rating (barnyardgrass [1]; 125 g ai/ha) | Corn plant response rating (0 to 100 scale) (corn; [19]) | Morningglory plant response rating (0 to 100 scale) (morningglory; [19]) | Velvetleaf plant response rating (0 to 100 scale) (velvetleaf; [19]) | Blackgrass plant response rating (blackgrass; 125 g ai/ha) | Wheat plant response rating (wheat; 125 g ai/ha) | Wheat plant response rating (wheat; 500 g ai/ha) | Rice plant response rating (rice [7]; [14]) | Rice plant response rating (rice [7]; [15]) | Rice plant response rating (rice [7]; [16]) | Plant response rating, Rice (rice [7]; [17]) | Ducksalad plant response rating (ducksalad [9]; [14]) | Ducksalad plant response rating (ducksalad [9]; [15]) | Ducksalad plant response rating (ducksalad [9]; [16]) | Barnyardgrass plant response rating (barnyardgrass [10]; [14]) | Barnyardgrass plant response rating (barnyardgrass [10]; [18]) | Barnyardgrass plant response rating (barnyardgrass [10]; [16]) | Plant response rating, Barnyardgrass (barnyardgrass [10]; [17])
70: Plant response rating, Surinam Grass (Surinam grass; [11]) | Cocklebur plant response rating (cocklebur; 500 g ai/ha) | Lambsquarters plant response rating (lambsquarters; 125 g ai/ha) | Plant response rating, Rice (rice [2]; [13])
30: Barnyardgrass plant response rating (0 to 100 scale) (barnyardgrass [1]; [19]) | Surinam Grass plant response rating (0 to 100 scale) (Surinam grass; [19]) | Pigweed plant response rating (0 to 100 scale) (pigweed; [19]) | Oat, Wild plant response rating (wild oat; 500 g ai/ha)
80: Rice plant response rating (rice [3]) | Sedge, Umbrella plant response rating [4] | Barnyardgrass plant response rating (barnyardgrass [6]) | Sedge, Umbrella plant response rating [8, 16] | Plant response rating, Ducksalad (ducksalad [9]; [17])
40: Plant response rating, Corn (corn; [11]) | Pigweed plant response rating (pigweed; 125 g ai/ha) | Rice plant response rating (0 to 100 scale) (rice [2]; 125 g ai/ha, 0 = no effect, 100 = complete control)
50: Crabgrass, Large plant response rating (0 to 100 scale) (large crabgrass; [19]) | Lambsquarters plant response rating (0 to 100 scale) (lambsquarters; [19])
10: Barnyardgrass plant response rating (barnyardgrass [1]; 500 g ai/ha) | Cocklebur plant response rating (0 to 100 scale) (cocklebur; [19]) | Crabgrass, Large plant response rating (large crabgrass; 125 g ai/ha) | Plant response rating, Velvetleaf (velvetleaf; [11]) | Velvetleaf plant response rating (velvetleaf; 125 g ai/ha) | Blackgrass plant response rating (blackgrass; 500 g ai/ha) | Sedge, Umbrella plant response rating [8, 14]
90: Plant response rating, Barnyardgrass (barnyardgrass [1]; [11]) | Lambsquarters plant response rating (lambsquarters; 500 g ai/ha) | Pigweed plant response rating (pigweed; 500 g ai/ha) | Ducksalad plant response rating (ducksalad [5])
85: Plant response rating, Sedge, Umbrella [8, 17]
100: Plant response rating, Crabgrass, Large (large crabgrass; [11]) | Plant response rating, Foxtail, Giant (giant foxtail; [11]) | Plant response rating, Lambsquarters (lambsquarters; [11]) | Plant response rating, Pigweed (pigweed; [11])
